Assay results from PubChem BioAssay AID328 (DTP/NCI, 2004).
Where “and” joins values, the source holds several entries; their conditions need not be identical. Identical values can stand only once. Inconclusive results and toxic doses are left out.

Tested on: BDF1 mice, P388 leukemia ip, median survival T/C
Assay: NCI In Vivo Anticancer Drug Screen. Data for tumor model P388 Leukemia (intraperitoneal) in B6D2F1 (BDF1) mice
Settings: endpoint: median survival time, higher = longer survival
Method in brief: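 T/C = treated-group survival ÷ vehicle-control survival; tumour transplanted into mice before dosing.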

[1] = dose: 6.25 mg/kg/injection, schedule: Q01DX009 (ip), vehicle: saline with Tween-80
[2] = dose: 12.5 mg/kg/injection, schedule: Q01DX009 (ip), vehicle: saline with Tween-80
[3] = dose: 50.0 mg/kg/injection, schedule: Q01DX009 (ip), vehicle: saline with Tween-80
[4] = dose: 50.0 mg/kg/injection, schedule: Q04DX003 (ip), vehicle: saline with Tween-80
[5] = dose: 100.0 mg/kg/injection, schedule: Q01DX009 (ip), vehicle: saline with Tween-80
[6] = dose: 100.0 mg/kg/injection, schedule: Q04DX003 (ip), vehicle: saline with Tween-80
[7] = dose: 200.0 mg/kg/injection, schedule: Q01DX009 (ip), vehicle: saline with Tween-80
[8] = dose: 200.0 mg/kg/injection, schedule: Q04DX003 (ip), vehicle: saline with Tween-80
[9] = dose: 400.0 mg/kg/injection, schedule: Q04DX003 (ip), vehicle: saline with Tween-80
[10] = dose: 3.12 mg/kg/injection, schedule: Q01DX009 (ip), vehicle: saline with Tween-80
[11] = dose: 25.0 mg/kg/injection, schedule: Q01DX009 (ip), vehicle: saline with Tween-80
[12] = dose: 50.0 mg/kg/injection, schedule: Q01DX009 (ip), vehicle: Klucel (hydroxypropylcellulose) (HPC)
[13] = dose: 100.0 mg/kg/injection, schedule: Q01DX009 (ip), vehicle: Klucel (hydroxypropylcellulose) (HPC)
[14] = dose: 100.0 mg/kg/injection, schedule: Q04DX003 (ip), vehicle: Klucel (hydroxypropylcellulose) (HPC)
[15] = dose: 200.0 mg/kg/injection, schedule: Q01DX009 (ip), vehicle: Klucel (hydroxypropylcellulose) (HPC)
[16] = dose: 200.0 mg/kg/injection, schedule: Q04DX003 (ip), vehicle: Klucel (hydroxypropylcellulose) (HPC)
[17] = dose: 12.5 mg/kg/injection, schedule: Q01DX009 (ip), vehicle: Klucel (hydroxypropylcellulose) (HPC)
[18] = dose: 25.0 mg/kg/injection, schedule: Q01DX009 (ip), vehicle: Klucel (hydroxypropylcellulose) (HPC)
[19] = dose: 100.0 mg/kg/injection, schedule: Q04DX002 (ip), vehicle: saline with Tween-80
[20] = dose: 200.0 mg/kg/injection, schedule: Q04DX002 (ip), vehicle: saline with Tween-80
[21] = dose: 400.0 mg/kg/injection, schedule: Q04DX002 (ip), vehicle: saline with Tween-80
[22] = dose: 400.0 mg/kg/injection, schedule: Q04DX003 (ip), vehicle: Klucel (hydroxypropylcellulose) (HPC)
[23] = dose: 50.0 mg/kg/injection, schedule: Q01DX009 (ip), vehicle: saline
[24] = dose: 100.0 mg/kg/injection, schedule: Q01DX009 (ip), vehicle: saline

In the case of `O=c1cc(-c2ccccc2)ss1`, the T/C [1] is reported as 98 % of control, the T/C [2] is reported as 102 % of control and 122 % of control and the T/C [3] is reported as 110 % of control and 121 % of control. The T/C [4] was 89 % of control, the T/C [5] was 121 % of control and 122 % of control and the T/C (dose: 100.0 mg/kg/injection, schedule: Q04DX003 (ip), vehicle: other) was 105 % of control. For the same molecule, the T/C [6] was 99 % of control and 100 % of control, the T/C (dose: 178.0 mg/kg/injection, schedule: Q04DX003 (ip), vehicle: other) was 111 % of control and the T/C [7] was 110 % of control. For the same molecule, the T/C (dose: 200.0 mg/kg/injection, schedule: Q04DX003 (ip), vehicle: other) was 100 % of control, the T/C [8] was 111 % of control and the T/C (dose: 266.0 mg/kg/injection, schedule: Q04DX003 (ip), vehicle: other) was 111 % of control. For the same molecule, the T/C [9] was 100 % of control.

In the case of `CN(C)C(=O)c1cccc(NCc2ccc3nc(N)nc(N)c3c2)c1`, the T/C [10] is reported as 108 % of control, the T/C [1] is reported as 99 % of control and the T/C [2] is reported as 106 % of control. For the same molecule, the T/C [11] was 99 % of control, the T/C [3] was 95 % of control and 108 % of control and the T/C [4] was 100 % of control. For the same molecule, the T/C [5] was 91 % of control, the T/C [6] was 100 % of control and the T/C [7] was 101 % of control. For the same molecule, the T/C [8] was 104 % of control, the T/C (dose: 400.0 mg/kg/injection, schedule: Q01DX009 (ip), vehicle: saline with Tween-80) was 94 % of control and the T/C [9] was 102 % of control.

In the case of `OC1(C#CC2(O)CCCCC2)CCCCC1`, the T/C [12] is reported as 96 % of control, the T/C (dose: 50.0 mg/kg/injection, schedule: Q04DX003 (ip), vehicle: Klucel (hydroxypropylcellulose) (HPC)) is reported as 109 % of control and the T/C [13] is reported as 100 % of control. The T/C [14] was 109 % of control, the T/C [15] was 96 % of control and the T/C [16] was 100 % of control.

For `Cc1cccc(/C=N/Nc2ccccn2)n1`, the T/C (dose: 50.0 mg/kg/injection, schedule: Q01DX005 (ip), vehicle: saline with Tween-80) was 108 % of control and the T/C (dose: 100.0 mg/kg/injection, schedule: Q01DX005 (ip), vehicle: saline with Tween-80) was 118 % of control.

`O=C(O)c1cc(I)cc(I)c1` was tested, and the T/C (dose: 100.0 mg/kg/injection, schedule: Q04DX003 (ip), vehicle: saline) was 100 % of control, the T/C (dose: 200.0 mg/kg/injection, schedule: Q04DX003 (ip), vehicle: saline) was 100 % of control and the T/C (dose: 400.0 mg/kg/injection, schedule: Q04DX003 (ip), vehicle: saline) was 160 % of control.

With `NC(N)=NCCCCCCC(=O)Nc1ccc(S(N)(=O)=O)cc1` the T/C [11] was 112 % of control, the T/C [3] was 106 % of control and the T/C [5] was 97 % of control.

For `C/C=C/C[n+]1cccc2ccccc21`, the T/C (dose: 6.25 mg/kg/injection, schedule: Q01DX009 (ip), vehicle: Klucel (hydroxypropylcellulose) (HPC)) was 86 % of control, the T/C (dose: 6.25 mg/kg/injection, schedule: Q04DX003 (ip), vehicle: saline) was 104 % of control and the T/C [17] was 90 % of control. The T/C (dose: 12.5 mg/kg/injection, schedule: Q04DX003 (ip), vehicle: saline) was 104 % of control, the T/C [18] was 86 % of control and the T/C (dose: 25.0 mg/kg/injection, schedule: Q04DX003 (ip), vehicle: saline) was 109 % of control.

With `COc1ccc(-c2oc3cc(O)c(OC)c(O)c3c(=O)c2OC)cc1O` the T/C (dose: 10.0 mg/kg/injection, schedule: Q01DX010 (ip), vehicle: saline) was 100 % of control, the T/C (dose: 20.0 mg/kg/injection, schedule: Q01DX010 (ip), vehicle: saline) was 100 % of control and the T/C (dose: 40.0 mg/kg/injection, schedule: Q01DX010 (ip), vehicle: saline) was 113 % of control.

In the case of `O=c1c2ccccc2[nH]c2c([N+](=O)[O-])ccc(Oc3cccc(C(F)(F)F)c3)c12`, the T/C [19] is reported as 90 % of control, the T/C [20] is reported as 102 % of control and the T/C [21] is reported as 92 % of control.

In the case of `CCN1CCCC(Nc2nc(C(Cl)(Cl)Cl)nc3cc(Cl)ccc23)C1` (stereo not drawn), the T/C [11] is reported as 109 % of control, the T/C [3] is reported as 113 % of control and the T/C [5] is reported as 104 % of control.

In the case of `O=C(Nc1cc(Cl)ccc1Cl)O/N=C/c1ccncc1`, the T/C [2] is reported as 106 % of control, the T/C [11] is reported as 90 % of control and the T/C [3] is reported as 96 % of control.

With `CC([NH-])=O.CC([NH-])=O.[Pt+2]` the T/C (dose: 25.0 mg/kg/injection, schedule: Q01DX009 (ip), vehicle: water) was 96 % of control, the T/C (dose: 50.0 mg/kg/injection, schedule: Q01DX009 (ip), vehicle: water) was 104 % of control and the T/C (dose: 100.0 mg/kg/injection, schedule: Q01DX009 (ip), vehicle: water) was 102 % of control. For the same molecule, the T/C (dose: 200.0 mg/kg/injection, schedule: Q01DX009 (ip), vehicle: water) was 107 % of control and the T/C (dose: 300.0 mg/kg/injection, schedule: Q01DX009 (ip), vehicle: water) was 112 % of control.

With `COC(=O)C1=COC2OC3CC1C2C(C)O3` (stereo not drawn) the T/C [17] was 99 % of control, the T/C [18] was 98 % of control and the T/C [12] was 115 % of control.

In the case of `CC1CC2CCCCN2O1` (stereo not drawn), the T/C [19] is reported as 102 % of control, the T/C [20] is reported as 103 % of control and the T/C [21] is reported as 105 % of control.

In the case of `CC(=O)c1ccc2c(c1)N(CCCN1CCN(CCO)CC1)c1ccccc1S2`, the T/C (dose: 3.12 mg/kg/injection, schedule: Q01DX009 (ip), vehicle: saline) is reported as 107 % of control, the T/C (dose: 6.25 mg/kg/injection, schedule: Q01DX009 (ip), vehicle: saline) is reported as 96 % of control and the T/C (dose: 12.5 mg/kg/injection, schedule: Q01DX009 (ip), vehicle: saline) is reported as 94 % of control.

`COc1ccc(OC(=O)Nc2ccccc2OC)cc1` was tested, and the T/C [14] was 91 % of control, the T/C [16] was 91 % of control and the T/C [22] was 87 % of control.

`CC(C(=O)O)S(=O)(=O)c1ccccc1` (stereo not drawn) was tested, and the T/C [19] was 93 % of control and the T/C [20] was 102 % of control.

For `COc1ccc(NC(=O)Oc2cc(C)cc(C)c2)cc1`, the T/C [14] was 100 % of control, the T/C [16] was 95 % of control and the T/C [22] was 100 % of control.

With `C#CCOC1CCCCO1` (stereo not drawn) the T/C (dose: 25.0 mg/kg/injection, schedule: Q01DX009 (ip), vehicle: saline) was 90 % of control, the T/C [23] was 100 % of control and the T/C [24] was 100 % of control.

For `CC1(C)C=C(C(Br)c2cccc(Cl)c2)C(=O)c2ccccc21` (stereo not drawn), the T/C [13] was 105 % of control, the T/C [14] was 104 % of control and the T/C [15] was 120 % of control. The T/C [16] was 104 % of control, the T/C (dose: 400.0 mg/kg/injection, schedule: Q01DX009 (ip), vehicle: Klucel (hydroxypropylcellulose) (HPC)) was 100 % of control and the T/C [22] was 95 % of control.

In the case of `C[n+]1c2ccccc2c(Nc2ccc(NS(=O)(=O)CCCCN=C(N)N)cc2)c2ccc(N)cc21`, the T/C (dose: 3.0 mg/kg/injection, schedule: Q01DX009 (ip), vehicle: water) is reported as 205 % of control and the T/C (dose: 6.0 mg/kg/injection, schedule: Q01DX009 (ip), vehicle: water) is reported as 116 % of control.

With `C1=CC23C4CCC2C2C4C4C(=C1)C3C2N1CCCCC41` (stereo not drawn) the T/C [17] was 104 % of control, the T/C [18] was 100 % of control and the T/C (dose: 37.5 mg/kg/injection, schedule: Q04DX003 (ip), vehicle: Klucel (hydroxypropylcellulose) (HPC)) was 91 % of control. For the same molecule, the T/C [12] was 100 % of control and the T/C (dose: 75.0 mg/kg/injection, schedule: Q04DX003 (ip), vehicle: Klucel (hydroxypropylcellulose) (HPC)) was 100 % of control.

In the case of `COC(OC)c1nc(N)[nH]c(=O)c1Cc1ccc(Br)cc1`, the T/C [6] is reported as 95 % of control, the T/C [8] is reported as 104 % of control and the T/C [9] is reported as 100 % of control.

With `Nc1ccc(OCCCCNC(=O)c2ccc(S(=O)(=O)F)cc2)c(Cl)c1` the T/C (dose: 0.78 mg/kg/injection, schedule: Q01DX009 (ip), vehicle: saline with Tween-80) was 94 % of control, the T/C (dose: 1.56 mg/kg/injection, schedule: Q01DX009 (ip), vehicle: saline with Tween-80) was 111 % of control and the T/C [10] was 102 % of control. For the same molecule, the T/C [1] was 100 % of control, the T/C [2] was 102 % of control and the T/C [11] was 86 % of control and 100 % of control and 115 % of control. For the same molecule, the T/C [3] was 110 % of control, the T/C [5] was 117 % of control and the T/C [6] was 103 % of control. The T/C [7] was 110 % of control and the T/C [8] was 99 % of control.

For `O=C1SCCC1CO` (stereo not drawn), the T/C [6] was 114 % of control.

For `NCCOCC(N)C(=O)O` (stereo not drawn), the T/C [23] was 109 % of control, the T/C [24] was 105 % of control and the T/C (dose: 200.0 mg/kg/injection, schedule: Q01DX009 (ip), vehicle: saline) was 98 % of control.
